Source: patent US20240252456A1, “ORAL COMPOSITION, SKIN COSMETIC AND HAIR COSMETIC” (MARUZEN PHARMACEUTICALS CO., LTD., priority 2021, published 2024)

What was measured:
B16 melanoma cells = assay: Melanin production suppressive action test on B16 melanoma cells; type: cell-based; conditions: 4 days, corrected by cell survival rate
Description: B16 melanoma cells were cultured using Dulbecco's modified Eagle's medium (DMEM) containing 10% FBS, and then the cells were collected by a trypsin treatment. The collected cells were diluted with DMEM containing 10% FBS and 1 mmol/L theophylline to a cell density of 24.0×10^4 cells/mL, then seeded with 300 μL per well in a 48-well plate, and cultured for 6 hours.
After the culturing was completed, 300 μL of each of test samples (Samples 1 to 3, see Table 5 below for final concentrations) dissolved in DMEM containing 10% FBS and 1 mmol/L theophylline was added to each well, and culturing was performed for 4 days. As a control, culturing was performed in the same manner using DMEM containing 10% FBS and 1 mmol/L theophylline to which no sample was added. After the culturing was completed, the medium was removed, 200 μL of 2 mol/L NaOH solution was added, the cells were disrupted using an ultrasonic disrupter, and the absorbance at a wavelength of 475 nm was measured. From the measured absorbance value, the amount of melanin was calculated based on a calibration curve created using synthetic melanin (available from SIGMA).
In addition, in order to measure the cell survival rate, after culturing in the same manner as above, the medium was removed, the cells were washed with 400 μL of PBS(−) buffer solution, 200 μL of Neutral Red dissolved at a final concentration of 0.05 mg/mL in DMEM containing 10% FBS was added to each well, and culturing was performed for 2.5 hours. After culturing, the neutral red solution was removed, and 200 μL of ethanol/acetic acid solution (ethanol:acetic acid:water=50:1:49) was added to each well to extract the dye. After extraction, the absorbance at a wavelength of 540 nm was measured. From the obtained results, the melanin production suppression rate (%) corrected by the cell survival rate was calculated using the following equation.
Terms in the equation represent the following respective ones. • A: Melanin amount without sample addition • B: Melanin amount with test sample addition • C: Absorbance at wavelength 540 nm without sample addition • D: Absorbance at wavelength 540 nm with test sample addition

CLDN1 mRNA = assay: Claudin-1 (CLDN1) mRNA expression promotive action test; type: cell-based, human; conditions: NHEK, 24 hours, corrected with GAPDH
Description: (§1) Normal human neonatal epidermal keratinocytes (NHEK) were precultured using normal human epidermal keratinocyte growth medium (KGM), and the cells were collected by a trypsin treatment. The collected cells were diluted with KGM to a cell density of 15×10^4 cells/mL, then seeded with 2 mL portions in a 6-well plate (30×10^4 cells/well), and cultured overnight under conditions of 37° C. and 5% CO2. After culturing, the medium was replaced with normal human epidermal keratinocyte basal medium (KBM, the above KGM without addition of growth additives (hEGF, BPE, insulin, antibacterial agents, hydrocortisone)), and culturing was further performed for 24 hours.
(§2) After culturing for 24 hours, the medium was removed, and 2 mL of each of test samples (Samples 1 and 3, see Table 19 below for final concentrations) dissolved in KBM was added to each well, and culturing was performed under conditions of 37° C. and 5% CO2 for 24 hours. As a control, culturing was performed in the same manner using KBM to which no sample was added. After culturing, the medium was removed, total RNA was extracted using ISOGEN II (available from NIPPON GENE CO., LTD.), each RNA amount was measured using a spectrophotometer, and the total RNA was prepared so as to be 150 ng/μL.
For CLDN1 and GAPDH as an internal standard, the expression levels of mRNA were measured using the above total RNA as a template. Detection was performed through a two-step real-time RT-PCR reaction using a real-time PCR device, Thermal Cycler Dice Real Time System III (available from Takara Bio Inc.), with PrimeScript™ RT Master Mix (Perfect Real Time) (available from Takara Bio Inc.) and TB Green® Fast qPCR Mix (available from Takara Bio Inc.). Primers available from Takara Bio Inc. were used. The expression level of CLDN1 mRNA was obtained as a value corrected with a value of GAPDH based on total RNA preparations prepared from cells cultured “with test sample addition” and “without sample addition.” From the obtained values, the CLDN1 mRNA expression promotion rate (%) was calculated using the following equation. […]

FLG mRNA = assay: Filaggrin (FLG) mRNA expression promotive action test; type: cell-based, human; conditions: NHEK, 24 hours, corrected with GAPDH
Description: as §1
as §2, with “1 to” for “1 and”, “Table 18” for “Table 19”
For FLG and GAPDH as an internal standard, the expression levels of mRNA were measured using the above total RNA as a template. Detection was performed through a two-step real-time RT-PCR reaction using a real-time PCR device, Thermal Cycler Dice Real Time System III (available from Takara Bio Inc.), with PrimeScript™ RT Master Mix (Perfect Real Time) (available from Takara Bio Inc.) and TB Green® Fast qPCR Mix (available from Takara Bio Inc.). Primers available from Takara Bio Inc. were used. The expression level of FLG mRNA was obtained as a value corrected with a value of GAPDH based on total RNA preparations prepared from cells cultured “with test sample addition” and “without sample addition.” From the obtained values, the FLG mRNA expression promotion rate (%) was calculated using the following equation.
Terms in the equation represent the following respective ones. • A: Corrected value with test sample addition • B: Corrected value without sample addition

SMILES	Melanin production suppression rate (B16 melanoma cells; 250 μmol/L)	CLDN1 mRNA expression promotion rate (CLDN1 mRNA; 25 μmol/L)	CLDN1 mRNA expression promotion rate (CLDN1 mRNA; 100 μmol/L)	FLG mRNA expression promotion rate (FLG mRNA; 25 μmol/L)	FLG mRNA expression promotion rate (FLG mRNA; 100 μmol/L)	Melanin production suppression rate (B16 melanoma cells; 62.5 μmol/L)	Melanin production suppression rate (B16 melanoma cells; 1000 μmol/L)
O=C(O)CCc1ccc(O)c(O)c1 [Sample 1, 3,4-Dihydroxyhydrocinnamic acid]	63.8%	256.6%	568.6%	197.2%	342.0%		
O=C(O)CCc1ccc(O)cc1 [Sample 2, 3-(4-Hydroxyphenyl)propionic acid]	40.2%			168.2%	129.8%	8.5%	69.5%
O=C(O)CCc1ccccc1 [Sample 3, 3-phenylpropionic acid]	46.2%	125.5%		196.6%			57.0%
